These results are taken from US4616081A, “Cephalosporin compounds” (Asahi Kasei Kogyo Kabushiki Kaisha, priority 1982, dated 1986).

Where only a bound is given, the exact number is not on record here.

In data set [1] the test system is Staph. aureus ATCC 6538P. As to the kind of experiment: MIC against Staph. aureus ATCC 6538P. It is filed as cell-based. Conditions: Bacterial count inoculated 10^6 cells/ml. The method, then:
(§1) Nextly, antibacterial activity or minimum inhibitory concentration (MIC) was measured and the results are shown in Table 1 with respect to the following representative compounds according to the present invention. [drawing 19]
(§2) With respect to Compound Nos. 14 and 15, antibacterial activity or minimum inhibitory concentration (MIC) was measured and the results are shown in Table 2. [drawing 21]

The subject of data set [2] is Staph. aureus MS27. As to the kind of experiment: MIC against Staph. aureus MS27. It is filed as cell-based. The conditions noted are these: Bacterial count inoculated 10^6 cells/ml. The method, then: as §1, §2
Data set [3] relates to Strept. pyogenes NY5. The data set can be described thus: MIC against Strept. pyogenes NY5. It is filed as cell-based. Conditions: Bacterial count inoculated 10^6 cells/ml. The method, then:
as §1, §2

Data set [4] relates to Sarcina lutea ATCC 9341. As to the kind of experiment: MIC against Sarcina lutea ATCC 9341. The format is cell-based. The conditions noted are these: Bacterial count inoculated 10^6 cells/ml. The method, then:
as §1, §2

Data set [5] has as its system Bac. subtilis ATCC 6633. As to the kind of experiment: MIC against Bac. subtilis ATCC 6633. It is filed as cell-based. Conditions: Bacterial count inoculated 10^6 cells/ml. The method, then: as §2
Data set [6] relates to E. coli NIHJ-JC2. As to the kind of experiment: MIC against E. coli NIHJ-JC2. The format is cell-based. The method, then: as §1, §2
In data set [7] the test system is E. coli W3630. As to the kind of experiment: MIC against E. coli W3630. It is filed as cell-based. The method, then:
as §1, §2

Data set [8] deals with E. coli W3630 PS3. The data set can be described thus: MIC against E. coli W3630 PS3. It is filed as cell-based. The conditions noted are these: Bacterial count inoculated 10^6 cells/ml. The method, then: as §1, §2
The subject of data set [9] is Citrobact. freundii GN346. The data set can be described thus: MIC against Citrobact. freundii GN346. The format is cell-based. Conditions: Bacterial count inoculated 10^6 cells/ml. The method, then:
as §1, §2

For data set [10], the system named is Klebs. pneumoniae ATCC 10031. The data set can be described thus: MIC against Klebs. pneumoniae ATCC 10031. The format is cell-based. The method, then:
as §1, §2

Data set [11] relates to Salm. enteritidis Gaertner. The data set can be described thus: MIC against Salm. enteritidis Gaertner. The format is cell-based. The conditions noted are these: Bacterial count inoculated 10^6 cells/ml. The method, then:
as §1, §2

Data set [12] has as its system Shigella sonnei E33. The data set can be described thus: MIC against Shigella sonnei E33. It is filed as cell-based. The method, then: as §1, §2
In data set [13] the test system is Proteus morganii 0239. As to the kind of experiment: MIC against Proteus morganii 0239. The format is cell-based. The conditions noted are these: Bacterial count inoculated 10^6 cells/ml. The method, then:
as §1, §2

In data set [14] the test system is Proteus rettgeri ACR. As to the kind of experiment: MIC against Proteus rettgeri ACR. It is filed as cell-based. The method, then:
as §1, §2

Data set [15] relates to Enterobact. aerogenes 0655. The data set can be described thus: MIC against Enterobact. aerogenes 0655. It is filed as cell-based. The conditions noted are these: Bacterial count inoculated 10^6 cells/ml. The method, then:
as §1, §2

Data set [16] relates to Enterobact. cloacae GN336. As to the kind of experiment: MIC against Enterobact. cloacae GN336. The format is cell-based. The method, then: as §1, §2
Data set [17] has as its system Serratia marcescens. The data set can be described thus: MIC against Serratia marcescens. The format is cell-based. The method, then: as §1, §2
The subject of data set [18] is Ps. aeruginosa 0812 M2. The data set can be described thus: MIC against Ps. aeruginosa 0812 M2. The conditions noted are these: Bacterial count inoculated 10^6 cells/ml. The format is cell-based. The method, then: as §1, §2
Data set [19] is described as follows: acute toxicity test using mice, intraperitoneal. The conditions noted are these: mouse, in vivo, ip. The source says:
In addition to excellent antibacterial activity, the compounds of the present invention are low in toxicity. For example, in acute toxicity test using mice, the following results were obtained with Compound Nos. 2, 3, 7, 14, 15 and 23 which were intraperitoneally administered.

Data set [20] can be described thus: maximum blood concentration after oral administration in Wister rats (HPLC and Bioassay). The format is in vivo. The conditions noted are these: Wister rat, fasted, 30 mg/kg, solution of pH 7 in phosphate buffer. The method, then: Further in the compounds according to the present invention, intestinal absorption is improved by the introduction of amino acids at the 3-position thereof. For example, comparison of the maximum blood concentration of the Compound Nos. 2, 3, 7, 8, 14, 15 and 23 with that of Comparative Compound (b) establishes and affirms the effects, as is shown below. In the above test, the method for measurement of blood concentration was as follows. Rate: Wister rat weighing 170 to 220 g Dose: 30 mg/kg Wister rats were fasted from the previous night but freely accessible to water. Each of drugs was administered as a solution of pH 7 in a phosphate buffer, when orally administered. The blood concentration was measured in accordance with the High Performance Liquid Chromatography (HPLC) method and the Bioassay method by using E. coli as bacteria for test.

Data set [21] has as its system E. coli W3630 RGN14. The data set can be described thus: MIC against E. coli W3630 RGN14. The format is cell-based.
Data set [22] deals with E. coli W3630 RGN238. The data set can be described thus: MIC against E. coli W3630 RGN238. It is filed as cell-based.
Data set [23] deals with E. coli 0205. The data set can be described thus: MIC against E. coli 0205. The format is cell-based.
Where [24] appears, read: Bacterial count inoculated 10^6 cells/ml.
Setting [25] is: Table 3, second listing of the strain, head prints 10^6 cells/ml.

In general, LD50 refers to the dose at which mortality reaches 50%. A lower LD50 goes with a more toxic substance. In general, Cmax refers to the maximum level reached in the sampled fluid or tissue. As for `CO/N=C(\C(=O)N[C@@H]1C(=O)N2C(C(=O)O)=C(C[n+]3cccc(CC(N)C(=O)O)c3)CS[C@H]12)c1csc(N)n1` (some centres unmarked) [Compound No. 15], the “Minimum Inhibitory Concentration (MIC)” value is 3.1 in [1]; 6.3 in [2]; no more than 0.1 in [3]; no more than 0.1 in data set [4]; 1.6 in data set [5]; 0.2 in data set [6] (setting [24]). The “Minimum Inhibitory Concentration (MIC)” value in data set [7] (setting [24]) is listed as 0.2; in data set [8], 0.1; in [9], 12.5; in [10] (setting [24]) it was 0.1; in [11], no more than 0.1; in data set [12] (setting [24]) it was no more than 0.1. The “Minimum Inhibitory Concentration (MIC)” value in data set [13] is 0.2; in data set [14] (setting [24]), 0.2; in data set [15], 0.2; in data set [16] (setting [24]), 0.2; in [17] (setting [24]) it was 0.4; in data set [18], 6.3. In data set [19], this molecule gave a 50% lethal dose (LD50) of 10000 to 12000 mg/kg. Moreover, the Cmax in data set [20] was 12 µg/mL.

As for `CO/N=C(\C(=O)N[C@@H]1C(=O)N2C(C(=O)O)=C(CSc3ncc(C[C@H](N)C(=O)O)[nH]3)CS[C@H]12)c1csc(N)n1` [Compound No. 23], the “Minimum Inhibitory Concentration (MIC)” value in [6] (setting [24]) was no more than 0.2; in data set [6] (setting [25]), 12.5; in data set [7] (setting [24]), no more than 0.2; in [7] (setting [25]) it was 6.3; in [21] (setting [24]), no more than 0.2; in data set [21] (setting [25]) it was 6.3. Moreover, the “Minimum Inhibitory Concentration (MIC)” value is listed as no more than 0.2 in [22] (setting [24]); 25 in [22] (setting [25]); 0.4 in [23] (setting [24]); 12.5 in data set [23] (setting [25]); no more than 0.2 in [10] (setting [24]); 1.6 in data set [10] (setting [25]). Further, the “Minimum Inhibitory Concentration (MIC)” value is on record as no more than 0.2 in [12] (setting [24]); 1.6 in data set [12] (setting [25]); no more than 0.2 in data set [14] (setting [24]); 25 in data set [14] (setting [25]); no more than 0.2 in data set [16] (setting [24]); 25 in data set [16] (setting [25]). The “Minimum Inhibitory Concentration (MIC)” value in [17] (setting [24]) is on record as no more than 0.2; in [17] (setting [25]), greater than 100. In [19], the LD50 was 10000 to 12000 mg/kg. For the same molecule, the Cmax in [20] came out at 6 µg/mL.

Consider `Cc1nnc(SCC2=C(C(=O)O)N3C(=O)C(NC(=O)Cn4cnnn4)C3SC2)s1` (centres unmarked) [Comparative Compound (a), reference compound], for which the “Minimum Inhibitory Concentration (MIC)” value in [1] was 0.4; in data set [2], 1.6; in data set [3], 0.2; in [4], 0.8; in data set [5], 0.2; in [6] (setting [24]) it was 1.6. In addition, the “Minimum Inhibitory Concentration (MIC)” value is recorded as 3.1 in [7] (setting [24]); 3.1 in data set [8]; greater than 100 in data set [9]; 3.1 in data set [10] (setting [24]); 3.1 in [11]; 1.6 in data set [12] (setting [24]). Further, the “Minimum Inhibitory Concentration (MIC)” value in [13], in [14] (setting [24]), in data set [15], in data set [16] (setting [24]), in data set [17] (setting [24]) and in [18] was greater than 100 throughout.

For the molecule `CO/N=C(\C(=O)N[C@@H]1C(=O)N2C(C(=O)O)=C(C[n+]3ccc(CC(N)C(=O)O)cc3)CS[C@H]12)c1csc(N)n1` (stereo partly drawn) [Compound No. 14, 7β-[(Z)-2-(2-amino-4-thiazolyl)-2-(methoxyimino)acetamido]-3-[4-(2-amino-2-carboxy)ethyl-1-pyridiummethyl]-3-cephem-4-carboxylic acid], the “Minimum Inhibitory Concentration (MIC)” value in [1] is given as 6.3; in data set [2] it was 3.1; in data set [3] it was 0.1; in data set [4] it was 0.8; in data set [5], no more than 0.1; in data set [6] (setting [24]), 0.1. Besides, the “Minimum Inhibitory Concentration (MIC)” value in data set [7] (setting [24]) is no more than 0.1; in data set [8] it was no more than 0.1; in data set [9] it was 12.5; in [10] (setting [24]), no more than 0.1; in data set [11] it was no more than 0.1; in data set [12] (setting [24]), no more than 0.1. For the same molecule, the “Minimum Inhibitory Concentration (MIC)” value in data set [13] turned out to be 0.2; in data set [14] (setting [24]), 0.2; in data set [15], 0.2; in [16] (setting [24]) it was 0.2; in data set [17] (setting [24]), 0.1; in [18], 3.1. In addition, the 50% lethal dose (LD50) in data set [19] is 9000 to 10000 mg/kg. Also, in [20], the highest level (Cmax) was 9 µg/mL.
